The subject of assay [1] is mice with DSS-induced colitis. As to the kind of experiment: Disease activity index (DAI) in DSS-induced acute colitis model. The class given is in vivo, BALB/c mice. As to the method: For use in this experiment, female BALB/c mice (7 weeks old) were purchased from Saeronbio Inc. (Gyeonggi-do, Korea) and acclimatized for 7 days under SPF conditions at Kyonggi University (temperature 23±2° C., humidity 50±5%, 12-hour light/dark cycle). All experiments adhered to the guidelines of the university's Animal Ethics Committee. An acute colitis model was induced using dextran sodium sulfate (DSS). Mice were divided into seven groups of seven mice each. 1) A normal control group received purified water orally for 28 days. 2) A colitis group received purified water for 28 days and 5% DSS solution freely from days 21 to 28 to induce colitis. […] On the 29th day, each mouse was sacrificed, and the length of the colon and small intestine and the weight of the spleen were measured and evaluated. […] During the DSS treatment, colitis severity was determined using the disease activity index (DAI), which measures weight loss, stool consistency, rectal bleeding, and perianal blood presence according to the criteria in Table 3. After monitoring with the naked eye every two days for eight days, the scores were summed and calculated. […]

Assay [2] has as its system intestinal short chain fatty acids. The experiment in a line: Short chain fatty acid (SCFA) production in cecum of DSS-induced mice (GC). The class given is in vivo. The method, then: To determine the effect of administering the galacto-oligosaccharide of the present disclosure on the intestinal short chain fatty acids in DSS-induced mice, 5-ASA and the GOS of the present disclosure were administered at low (7 mg/mouse), medium (14 mg/mouse), and high (21 mg/mouse) concentrations to DSS-induced mice according to the schedule described in Example 3-1. Afterward, the cecums of the mice were collected, homogenized with a homogenizer, and suspended in 80% methanol. The samples were then centrifuged at 13,000 rpm for 10 minutes, diluted to a final concentration of 1 g/mL, and filtered through a 0.45 μm syringe filter. Quantitative analysis of SCFAs was performed by preparing each STD at different concentrations and using 2-ethylbutyric acid as the internal standard (ISTD). The standard curves were calculated based on the peak area ratios. In brief, the SCFA content was measured using gas chromatography (GC) equipped with a DB-FFAP capillary column to determine the production capacity of six SCFAs (acetic acid, propionic acid, butyric acid, valeric acid, caproic acid, and heptanoic acid). The GC analysis conditions were as follows: 100° C. (0.5 min), 100° C.→180° C. (8° C./min), 180° C. (1.0 min), 180° C.→200° C. (20° C./min), 200° C. (5.0 min).

The test system of another assay is IL-6. The experiment in a line: IL-6 level in colon tissue of DSS-induced colitis mice. It is filed as in vivo, BALB/c mice. As to the method:
(§1) Mice were divided into seven groups of seven mice each. 1) A normal control group received purified water orally for 28 days. 2) A colitis group received purified water for 28 days and 5% DSS solution freely from days 21 to 28 to induce colitis. The galacto-oligosaccharide of the present disclosure was administered at a dose of 3) 400 mg/kg and 4) 800 mg/kg to two groups of colitis-induced mice, respectively, for 28 days. In addition, to colitis-induced mice, the galacto-oligosaccharides from 5) company A and 6) company B were each administered at a dose of 800 mg/kg for 28 days while 7) the positive control group was administered 100 mg/kg of the anti-inflammatory agent 5-ASA (5-aminosalicylic acid) for 28 days. On the 29th day, each mouse was sacrificed, and the length of the colon and small intestine and the weight of the spleen were measured and evaluated. After measurement, the colon tissue was cut into 1 cm lengths, and the cecum was excised and placed into separate Ep. tubes for storage in a deep freezer for future experiments. […]
(§2) First, colon tissue samples were suspended in PBS containing a protease inhibitor (Roche Diagnostics Corp., Indianapolis, IN, USA) and homogenized uniformly using a TaKaRa BioMasher (Takara Bio Inc., Shiga, Japan). […] Protein concentration was quantified using a bicinchoninic acid kit (Thermo Scientific, Waltham, MA, USA).

In another assay the test system is TNF-α. The experiment in a line: TNF-α level in colon tissue of DSS-induced colitis mice. It is filed as in vivo, BALB/c mice. The method, then: as §1, §2
For assay [3], the system named is mucin and goblet cells in the colon. As to the kind of experiment: Histological analysis of colon (Alcian blue-PAS staining) in DSS-induced colitis mice. It is filed as in vivo, BALB/c mice. Conditions: colon sections, FIG. 9; dose not stated.
Assay [4] has as its system mice with DSS-induced colitis. As to the kind of experiment: Colon length in DSS-induced acute colitis model. It is filed as in vivo, BALB/c mice. As to the method: as §1, with “For use in this experiment, female BALB/c mice (7 weeks old) were purchased from Saeronbio Inc. (Gyeonggi-do, Korea) and acclimatized for 7 days under SPF conditions at Kyonggi University (temperature 23±2° C., humidity 50±5%, 12-hour light/dark cycle). All experiments adhered to the guidelines of the university's Animal Ethics Committee. An acute colitis model was induced using dextran sodium sulfate (DSS). Mice” for “Mice”, “The galacto-oligosaccharide of the present disclosure was administered at a dose of 3) 400 mg/kg and 4) 800 mg/kg to two groups of colitis-induced mice, respectively, for 28 days.” left out, “experiments. Portions of the remaining colon tissue were fixed in a 4% formalin solution.” for “experiments.”

The test system of the next assay is myeloperoxidase (MPO). As to the kind of experiment: MPO level in colon tissue of DSS-induced colitis mice. It is filed as in vivo, BALB/c mice. Conditions: 100 mg/kg for 28 days (positive control). As to the method:
as §1, §2

Setting [5] is: 100 mg/kg (positive control), DSS colitis mice.
The mark [6] stands for this setting: 100 mg/kg for 28 days (positive control), 5% DSS days 21-28.
Where [7] appears, read: PC, dose 100 mg/kg, DSS-induced mice.
Setting [8] is: 100 mg/kg for 28 days (positive control), DSS colitis.

Results on 1 molecule are retold here after patent US20250090563A1, “COMPOSITION FOR PREVENTION, AMELIORATION OR TREATMENT OF INFLAMMATORY BOWEL DISEASE COMPRISING GALACTO-OLIGOSACCHARIDE” (NEO CREMAR CO., LTD., priority 2022, published 2025).

On to `Nc1ccc(O)c(C(=O)O)c1` [5-ASA, 5-aminosalicylic acid], for which the “Colitis amelioration effect (DAI), in words” value in assay [1] (setting [5]) is given as “did not show any colitis amelioration effect”. Also, the “Disease Activity Index of 8 day (Score)” value in assay [1] (setting [6]) is listed as 10.3 Score. Further, in assay [2] (PC group, cecum), the “All SCFAs except acetic acid compared to the NC treated with 5% DSS alone, in words” value was “slight increase”. In assay [2] (setting [7]), the “Acetic acid, share of total SCFA (value in parentheses)” value turned out to be 73.3; the “Acetic acid, short chain fatty acid production in cecum” value was 8917 µM; the “Butyric acid, share of total SCFA (value in parentheses)” value turned out to be 15.8; the “Butyric acid, short chain fatty acid production in cecum” value came out at 1923 µM. Moreover, in assay [2] (setting [7]), the “Propionic acid, share of total SCFA (value in parentheses)” value stood at 10.9; the “Propionic acid, short chain fatty acid production in cecum” value stood at 1321 µM; the “Total SCFA, share of total SCFA (value in parentheses)” value was 100; the “Total SCFA, short chain fatty acid production in cecum” value came out at 12161 µM. Moreover, the “Level of IL-6 versus DSS group, in words” value in the assay on IL-6 (setting [5]) is “greatly reduced”. Also, the IL-6 in the assay on IL-6 (setting [8]) amounted to 12 pg/mg. The “Level of TNF-α versus DSS group, in words” value in the assay with TNF-α (setting [5]) is “greatly reduced”. This molecule also had a TNF-α in the assay with TNF-α (setting [8]) of 100 pg/mg. In assay [3], the “Amount of mucin (Alcian blue-PAS) compared to the DSS-treated group” value was “the amount of mucin recovered” and the “Goblet cells compared to the DSS-treated group” value is given as “goblet cells were observed”. The “Inhibition of the reduction of colon length, in words” value in assay [4] (setting [5]) is reported as “showed an efficacy in inhibiting the reduction of colon length”. Moreover, in assay [4] (setting [6]), the Colon length is reported as 5.2 cm. Further, the MPO in the assay on myeloperoxidase (MPO) is 45 pg/mg.
